Bridges are numbered along the chain shown (N, C = ends). Where no end group is shown, it is not given here.
Assays:
MAP kinase p38 = assay: Western blotting of p38 phosphorylation in MC3T3-E1 cells; type: cell-based, mouse; settings: 200 μM peptide D
Method: (§1) MC3T3-E1 cells mixed with 10% FBS+αMEM (SIGMA) were seeded on a 6-well plate (7.5×10^4 cells/well). […] The medium was removed at the respective time points shown in the relevant figures. PBS was added to the cells, and the cells were collected with a scraper (Falcon). A cell pellet was obtained via centrifugation at 1200 rpm for 5 min at 4° C. RIPA buffer (100 μL) was added to the collected pellet, for dissolution of the cellular membrane. Further, the resultant was centrifuged under conditions of 14500 rpm for 25 min at 4° C. The supernatant was collected as a cell extract. A portion of the cell extract was used for quantification of the protein concentration with the use of a BCA protein assay kit (PIERCE). For SDS-PAGE, a sample buffer in an amount that was ¼ that of the cell extract (Fermentas) was added thereto, followed by heating at 95° C. for 5 min. The prepared sample was applied in an amount of 7.5 or 10 μg to 10% polyacrylamide gel (BioRad), followed by electrophoresis at 170 V for 1 hour. After electrophoresis, the electrophoresed sample was transferred to a PVDF membrane (Millipore) at 80 mA for 40 min. The membrane was shaken in a blocking solution (Nacalai) at room temperature for 1 hour and then a primary antibody was added thereto, followed by shaking at room temperature for 1 hour at 4° C. for 12 hours. […]

C57BL/6CrjCrlj mice = assay: Peptide D administration to mice: bone density (SXA), pQCT and μCT analysis of femur; type: in vivo, mouse
Method: A synthetic peptide was used for experiments. Synthetic peptide D is a cyclic peptide comprising the amino acid sequence represented by SEQ ID NO: 7, which consists of 9 amino acids and contains two cysteine residues binding to each other via a disulfide bond. […] The synthetic peptide was dissolved in 10% DMSO (Nacalai)/PBS to a concentration of 1 mg/ml.
Subcutaneous administration of peptide D was carried out in a dose of 10 mg/kg at 8:00, 14:00, and 20:00 (three times daily) for 5 days. 5% DMSO/PBS was administered to the control group. Mice were dissected 12 hour after the completion of administration for 5 days and subjected to exsanguination. Thereafter, the femur and the tibia were collected from each mouse. The whole blood of each mouse was left at room temperature for 1 hour and then centrifuged under conditions of 5000 rpm and 4° C. for 5 min. The serum was collected in a new tube. The femur and the tibia of each mouse were fixed with cold 70% ethanol.
Each femur fixed with ethanol was subjected to single energy X-ray absorptiometry (SXA) analysis (DCS-600EX-IIIR DXA for animals, ALOKA) for determination of bone density, bone mineral content, and bone surface area. The full length of each bone was divided into 20 regions. The bone density for each region was determined and actions of the peptide in each region were analyzed.
Bone structure analysis was carried out by peripheral quantitative computed tomography (hereinafter abbreviated as pQCT) and micro-computed tomography (hereinafter abbreviated as μCT). Scan-Xmate-A080 (Comscantecno Co., Ltd.) was used for μCT and XCT-Research SA+(Stratec Medizintechnik GmbH) was used for pQCT. The dedicated software (3D-BON (RATOC)) was used for preparation of three-dimensional structural image and trabecular structure analysis with the use of μCT data. In addition, for analysis by pQCT, a region with a bone density of 395 mg/cm^3 or less was determined to be cancellous bone and a region with a bone density of 690 mg/cm^3 or more was determined to be cortical bone.

GSK3β = assay: Western blotting of GSK3β phosphorylation in MC3T3-E1 cells; type: cell-based, mouse; settings: 1 and 3 hours after the addition; 200 μM peptide D or 200 ng/ml BMP-2
Method: as §1

[1] = μCT trabecular structure measurement

## peptide D: cyclic peptide of SEQ ID NO: 7, 9 amino acids, two cysteine residues bound via a disulfide bond; binds to RANKL (YCWSQYLCY; disulfide 2-8 (inferred))
MAP kinase p38; 12 hours after the addition
  p38 phosphorylation: significant p38 phosphorylation
MAP kinase p38; within a short period of time after the addition
  p38 phosphorylation: no significant changes
C57BL/6CrjCrlj mice; 10 mg/kg s.c. 3 times daily for 5 days
  bone mineral content (SXA, femur): increase in bone mineral content
C57BL/6CrjCrlj mice; 10 mg/kg s.c. 3 times daily for 5 days, p<0.05 vs control group
  bone density (SXA, femur): significant increase in bone density
C57BL/6CrjCrlj mice; 6th to 9th regions from the distal end of the femur, p<0.05 vs control group
  bone density of each region (SXA20 partition analysis): significant increase in bone density
C57BL/6CrjCrlj mice; based on trabecular structure measurement by μCT
  bone resorption inhibition actions: weak actions
C57BL/6CrjCrlj mice; region 5 mm away from the distal end of the femur
  intimal circumference of the cortical bone: shortened
C57BL/6CrjCrlj mice; region 5 mm away from the distal end of the femur, p<0.05 vs control group
  cortical bone density (pQCT): significant increase in cortical bone density
C57BL/6CrjCrlj mice; site 2 mm away from the distal end of the femur
  cancellous bone content (μCT): increased
C57BL/6CrjCrlj mice; [1]
  BV/TV of the cancellous bone: increased
  trabecular width of the cancellous bone: increased
GSK3β
  phosphorylation of GSK3β: confirmed to be induced

From US20100260680A1, “NOVEL BONE MASS INCREASING AGENT” (ORIENTAL YEAST CO., LTD., priority 2007, published 2010)
